According to the NIST ThermoML archive (doi:10.1021/je030102f):

Assay: xn = mol fraction of the nth substance listed
Settings: 101.33 kPa, Liquid, vibrating tube

CCC(=O)O [propanoic acid] + CC(C)=O
mass density [kg/m3]
Settings | x2 = 0 | x2 = 0.1014 | x2 = 0.1991 | x2 = 0.3046 | x2 = 0.4011 | x2 = 0.5001 | x2 = 0.603 | x2 = 0.6887 | x2 = 0.7703 | x2 = 0.8987
283.15 K | 1004.11 | 987.375 | 970.353 | 951.246 | 933.088 | 913.785 | 892.899 | 874.585 | 856.85 | 826.598
288.15 K | 998.688 | 982.013 | 965.023 | 945.944 | 927.765 | 908.446 | 887.52 | 869.18 | 851.407 | 821.062
293.15 K | 993.261 | 976.644 | 959.68 | 940.613 | 922.423 | 903.081 | 882.117 | 863.74 | 845.923 | 815.482
298.14 K | – | – | 954.344 | – | 917.072 | 897.705 | – | 858.28 | 840.415 | 809.87
298.15 K | 987.847 | 971.282 | – | 935.277 | – | – | 876.699 | – | – | –
303.14 K | 982.44 | 965.92 | 948.999 | 929.933 | 911.708 | 892.312 | 871.26 | 852.794 | 834.877 | 804.221
308.15 K | 977.037 | 960.555 | 943.653 | 924.579 | 906.33 | 886.9 | 865.798 | 847.276 | 829.305 | 798.532
313.14 K | 971.635 | 955.192 | – | – | – | – | 860.309 | – | 823.695 | –
313.15 K | – | – | 938.294 | 919.21 | 900.935 | 881.462 | – | 841.731 | – | 792.797
318.14 K | 966.24 | 949.825 | 932.928 | 913.828 | 895.523 | 876.007 | 854.791 | 836.154 | 818.051 | 787.018
323.14 K | 960.843 | – | 927.551 | 908.43 | 890.087 | – | – | – | 812.366 | 781.194
323.15 K | – | 944.448 | – | – | – | – | 849.244 | 830.541 | – | –

CCC(=O)O [propanoic acid] + O
mass density [kg/m3]
Settings | x1 = 0.1298 | x1 = 0.2029 | x1 = 0.3012 | x1 = 0.4007 | x1 = 0.5008 | x1 = 0.5989 | x1 = 0.6974 | x1 = 0.7965 | x1 = 0.8915 | x1 = 1
283.15 K | 1026.89 | 1033.97 | 1034.47 | 1032.63 | 1029.26 | 1025.17 | 1020.51 | 1015.43 | 1010.32 | 1004.11
288.14 K | – | – | – | 1027.99 | – | – | – | – | 1005.04 | –
288.15 K | 1023.97 | 1030.05 | 1029.92 | – | 1024.44 | 1020.22 | 1015.46 | 1010.26 | – | 998.688
293.14 K | – | 1026.08 | 1025.58 | – | – | – | 1010.39 | – | – | –
293.15 K | 1020.98 | – | – | 1023.31 | 1019.59 | 1015.26 | – | 1005.1 | 999.76 | 993.261
298.14 K | – | 1022.05 | 1021.14 | – | 1014.72 | – | 1005.31 | 999.927 | – | –
298.15 K | 1017.85 | – | – | 1018.61 | – | 1010.28 | – | – | 994.478 | 987.847
303.14 K | 1014.61 | – | 1016.76 | 1013.88 | 1009.8 | 1005.29 | – | 994.744 | – | 982.44
303.15 K | – | 1017.97 | – | – | – | – | 1000.22 | – | 989.192 | –
308.14 K | – | – | – | – | – | – | – | 989.551 | – | –
308.15 K | 1011.28 | 1013.84 | 1012.25 | 1009.12 | 1004.17 | 1000.27 | 995.12 | – | 983.905 | 977.037
313.14 K | 1007.85 | 1009.64 | 1007.69 | – | 999.956 | 995.242 | 990.001 | – | 978.613 | 971.635
313.15 K | – | – | – | 1004.33 | – | – | – | 984.345 | – | –
318.14 K | 1004.32 | 1005.39 | 1003.09 | 999.507 | 994.902 | 990.186 | 984.864 | 979.126 | 973.307 | 966.24
323.14 K | 1000.71 | 1001.09 | 998.434 | 994.651 | – | 985.106 | – | 973.895 | 967.999 | –
323.15 K | – | – | – | – | 990.008 | – | 979.705 | – | – | 960.843
